Assay results from PubChem BioAssay AID1963962 (Molecular Pharmacology Branch, DTP, NCI, 2024).

Test system: 967376-340-R-J2-PDC multicell spheroid viability
Assay: Anticancer human tumor 967376-340-R-J2-PDC patient-derived colon adenocarcinoma cell line growth inhibition [PI3K]
Conditions: for IC50: curve of first compound; for viability, T/C: stronger effect = lower value
Procedure, shortened: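 Complex 3D spheroids (cancer cells + endothelial HUVEC + mesenchymal stem cells); drug pairs of targeted agent x inavolisib/alpelisib/duvelisib/copanlisib; half-log series from ~Cmax, max 10 microM if Cmax unknown; endpoint viability.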

[1] = second compound 0.00316 µM, first compound 0.0316 µM
[2] = second compound 0.00316 µM, first compound 0.1 µM
[3] = second compound 0.00316 µM, first compound 0.316 µM
[4] = second compound 0.00316 µM, first compound 1 µM
[5] = second compound 0.00316 µM, first compound 3.16 µM
[6] = second compound 0.00316 µM, first compound 10 µM
[7] = second compound 0.01 µM, first compound 0.0316 µM
[8] = second compound 0.01 µM, first compound 0.1 µM
[9] = second compound 0.01 µM, first compound 0.316 µM
[10] = second compound 0.01 µM, first compound 1 µM
[11] = second compound 0.01 µM, first compound 3.16 µM
[12] = second compound 0.01 µM, first compound 10 µM
[13] = second compound 0.0316 µM, first compound 0.0316 µM
[14] = second compound 0.0316 µM, first compound 0.1 µM
[15] = second compound 0.0316 µM, first compound 0.316 µM
[16] = second compound 0.0316 µM, first compound 1 µM
[17] = second compound 0.0316 µM, first compound 3.16 µM
[18] = second compound 0.0316 µM, first compound 10 µM
[19] = second compound 0.1 µM, first compound 0.0316 µM
[20] = second compound 0.1 µM, first compound 0.1 µM
[21] = second compound 0.1 µM, first compound 0.316 µM
[22] = second compound 0.1 µM, first compound 1 µM
[23] = second compound 0.1 µM, first compound 3.16 µM
[24] = second compound 0.1 µM, first compound 10 µM
[25] = second compound 0.316 µM, first compound 0.0316 µM
[26] = second compound 0.316 µM, first compound 0.1 µM
[27] = second compound 0.316 µM, first compound 0.316 µM
[28] = second compound 0.316 µM, first compound 1 µM
[29] = second compound 0.316 µM, first compound 3.16 µM
[30] = second compound 0.316 µM, first compound 10 µM
[31] = second compound 1 µM, first compound 0.0316 µM
[32] = second compound 1 µM, first compound 0.1 µM
[33] = second compound 1 µM, first compound 0.316 µM
[34] = second compound 1 µM, first compound 1 µM
[35] = second compound 1 µM, first compound 3.16 µM
[36] = second compound 1 µM, first compound 10 µM
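Also: spheroids exposed to agents for 7 days before read-out.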
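For viability, T/C in this document: luminescence used as surrogate of cell viability.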

CC(C)NCC(C(=O)N1CCN(c2ncnc3c2C(C)CC3O)CC1)c1ccc(Cl)cc1 (stereo not drawn) + COc1c(OCCCN2CCOCC2)ccc2c3n(c(=NC(=O)c4cnc(N)nc4)nc12)CCN3
IC50 (second compound 0.00316 µM): > 10000 nM | IC50 (second compound 0.01 µM): > 10000 nM | IC50 (second compound 0.0316 µM): > 10000 nM | IC50 (second compound 0.1 µM): > 10000 nM | IC50 (second compound 0.316 µM): < 31.6 nM | IC50 (second compound 1 µM): < 31.6 nM | viability, T/C [1]: 79.8% | viability, T/C [2]: 100% | viability, T/C [3]: 78.2% | viability, T/C [4]: 83.5% | viability, T/C [5]: 73% | viability, T/C [6]: 85.4% | viability, T/C [7]: 90.9% | viability, T/C [8]: 75.4% | viability, T/C [9]: 102% | viability, T/C [10]: 66.9% | viability, T/C [11]: 76% | viability, T/C [12]: 75.5% | viability, T/C [13]: 78.8% | viability, T/C [14]: 61.5% | viability, T/C [15]: 62.5% | viability, T/C [16]: 66.7% | viability, T/C [17]: 82.9% | viability, T/C [18]: 66.4% | viability, T/C [19]: 53.7% | viability, T/C [20]: 54.1% | viability, T/C [21]: 74.5% | viability, T/C [22]: 49% | viability, T/C [23]: 57.9% | viability, T/C [24]: 47.5% | viability, T/C [25]: 38.4% | viability, T/C [26]: 35.5% | viability, T/C [27]: 57.1% | viability, T/C [28]: 33.9% | viability, T/C [29]: 52.5% | viability, T/C [30]: 49.4% | viability, T/C [31]: 48.4% | viability, T/C [32]: 25.3% | viability, T/C [33]: 37.2% | viability, T/C [34]: 26.1% | viability, T/C [35]: 47.6% | viability, T/C [36]: 48.7%

CCN1CCN(Cc2ccc(Nc3ncc(F)c(-c4cc(F)c5nc(C)n(C(C)C)c5c4)n3)nc2)CC1 + COc1c(OCCCN2CCOCC2)ccc2c3n(c(=NC(=O)c4cnc(N)nc4)nc12)CCN3
IC50 (second compound 0.00316 µM): > 1000 nM | IC50 (second compound 0.01 µM): > 1000 nM | IC50 (second compound 0.0316 µM): 769 nM | IC50 (second compound 0.1 µM): 25 nM | IC50 (second compound 0.316 µM): < 3.16 nM | IC50 (second compound 1 µM): < 3.16 nM | viability, T/C (second compound 0.00316 µM, first compound 0.00316 µM): 85.1% | viability, T/C (second compound 0.00316 µM, first compound 0.01 µM): 95.7% | viability, T/C [1]: 87.6% | viability, T/C [2]: 83.5% | viability, T/C [3]: 79.7% | viability, T/C [4]: 70.8% | viability, T/C (second compound 0.01 µM, first compound 0.00316 µM): 85.3% | viability, T/C (second compound 0.01 µM, first compound 0.01 µM): 77.9% | viability, T/C [7]: 62.4% | viability, T/C [8]: 71.1% | viability, T/C [9]: 73.2% | viability, T/C [10]: 60.6% | viability, T/C (second compound 0.0316 µM, first compound 0.00316 µM): 68.6% | viability, T/C (second compound 0.0316 µM, first compound 0.01 µM): 68.4% | viability, T/C [13]: 71.4% | viability, T/C [14]: 52.3% | viability, T/C [15]: 63.6% | viability, T/C [16]: 46.5% | viability, T/C (second compound 0.1 µM, first compound 0.00316 µM): 66% | viability, T/C (second compound 0.1 µM, first compound 0.01 µM): 57.6% | viability, T/C [19]: 48.2% | viability, T/C [20]: 40.1% | viability, T/C [21]: 39.2% | viability, T/C [22]: 34.9% | viability, T/C (second compound 0.316 µM, first compound 0.00316 µM): 53.2% | viability, T/C (second compound 0.316 µM, first compound 0.01 µM): 34.8% | viability, T/C [25]: 43.4% | viability, T/C [26]: 43.3% | viability, T/C [27]: 42.4% | viability, T/C [28]: 29.6% | viability, T/C (second compound 1 µM, first compound 0.00316 µM): 42.2% | viability, T/C (second compound 1 µM, first compound 0.01 µM): 35.5% | viability, T/C [31]: 38.4% | viability, T/C [32]: 22.8% | viability, T/C [33]: 28.4% | viability, T/C [34]: 30.3%

Cn1ncc(Cl)c1-c1cc(C(=O)NC(CN)Cc2cccc(F)c2)sc1Cl (stereo not drawn) + COc1c(OCCCN2CCOCC2)ccc2c3n(c(=NC(=O)c4cnc(N)nc4)nc12)CCN3
IC50 (second compound 0.00316 µM): > 10000 nM | IC50 (second compound 0.01 µM): > 10000 nM | IC50 (second compound 0.0316 µM): 4960 nM | IC50 (second compound 0.1 µM): > 10000 nM | IC50 (second compound 0.316 µM): 149 nM | IC50 (second compound 1 µM): < 31.6 nM | viability, T/C [1]: 93.7% | viability, T/C [2]: 107% | viability, T/C [3]: 73.8% | viability, T/C [4]: 94.8% | viability, T/C [5]: 84.8% | viability, T/C [6]: 60.2% | viability, T/C [7]: 88.5% | viability, T/C [8]: 106% | viability, T/C [9]: 76.2% | viability, T/C [10]: 84.2% | viability, T/C [11]: 67.3% | viability, T/C [12]: 64.7% | viability, T/C [13]: 84.1% | viability, T/C [14]: 80.7% | viability, T/C [15]: 70.5% | viability, T/C [16]: 80.5% | viability, T/C [17]: 57.8% | viability, T/C [18]: 37.8% | viability, T/C [19]: 76.4% | viability, T/C [20]: 59.3% | viability, T/C [21]: 77.9% | viability, T/C [22]: 67.8% | viability, T/C [23]: 52.8% | viability, T/C [24]: 56.5% | viability, T/C [25]: 59.1% | viability, T/C [26]: 55.3% | viability, T/C [27]: 45.1% | viability, T/C [28]: 36% | viability, T/C [29]: 52.5% | viability, T/C [30]: 36.6% | viability, T/C [31]: 40.4% | viability, T/C [32]: 46.5% | viability, T/C [33]: 30.9% | viability, T/C [34]: 39.7% | viability, T/C [35]: 31.4% | viability, T/C [36]: 24.4%

Cn1nccc1Nc1nccc(-c2ccn(C(CO)c3ccc(Cl)c(F)c3)c(=O)c2)n1 (stereo not drawn) + COc1c(OCCCN2CCOCC2)ccc2c3n(c(=NC(=O)c4cnc(N)nc4)nc12)CCN3
IC50 (second compound 0.00316 µM): > 10000 nM | IC50 (second compound 0.01 µM): > 10000 nM | IC50 (second compound 0.0316 µM): > 10000 nM | IC50 (second compound 0.1 µM): > 10000 nM | IC50 (second compound 0.316 µM): 65.1 nM | IC50 (second compound 1 µM): < 31.6 nM | viability, T/C [1]: 117% | viability, T/C [2]: 117% | viability, T/C [3]: 86.2% | viability, T/C [4]: 86.9% | viability, T/C [5]: 137% | viability, T/C [6]: 74.5% | viability, T/C [7]: 96.2% | viability, T/C [8]: 87.6% | viability, T/C [9]: 96.4% | viability, T/C [10]: 100% | viability, T/C [11]: 97.5% | viability, T/C [12]: 97.8% | viability, T/C [13]: 73.5% | viability, T/C [14]: 96.8% | viability, T/C [15]: 72.9% | viability, T/C [16]: 79.2% | viability, T/C [17]: 83.1% | viability, T/C [18]: 84.8% | viability, T/C [19]: 61.1% | viability, T/C [20]: 67% | viability, T/C [21]: 55.6% | viability, T/C [22]: 86.7% | viability, T/C [23]: 58.9% | viability, T/C [24]: 43.6% | viability, T/C [25]: 58.5% | viability, T/C [26]: 43% | viability, T/C [27]: 34.8% | viability, T/C [28]: 49.5% | viability, T/C [29]: 57.5% | viability, T/C [30]: 29.3% | viability, T/C [31]: 44.4% | viability, T/C [32]: 31% | viability, T/C [33]: 40.7% | viability, T/C [34]: 49.4% | viability, T/C [35]: 42.9% | viability, T/C [36]: 27.6%
